# Source: patent US20120214862A1, “MODULATION OF FACTOR 7 EXPRESSION” (ISIS Pharmaceuticals, Inc., priority 2009, published 2012)
# In the oligonucleotide strings, read from the 5' end, every base follows the letter of its sugar. An asterisk marks phosphorothioate; unmarked linkages are phosphodiester. Other units and linkages are bracketed, terminal groups are in braces. A string of capitals states the bases alone. e = 2'-O-(2-methoxyethyl) (MOE); [5mC] = 5-methylcytosine; d = 2'-deoxy (DNA)
# System: human Factor 7 mRNA
# Assay: Antisense inhibition of human Factor 7 mRNA in HepB3 cells, lipofectin, 50 nM, real-time RT-PCR
# Format: cell-based
# Conditions: for % Inhibition (human Factor 7 mRNA): 50 nM, ~24 h
# Method in brief: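 Percent inhibition, untreated cells as reference: derived from RNA collected about 24 hours post-transfection of 4,000-cell wells, with the human RTS 2927 primer probe set and adjustment for total RNA content (RIBOGREEN®).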
# [1] = HepB3 cells, gapmers targeted to nucleobases 11830 to 11869 of SEQ ID NO: 1 (Table 9)
# [2] = HepB3 cells, gapmers targeted to nucleobases 13760 to 13789 of SEQ ID NO: 1 (Table 10)
# [3] = Example 4, HepB3 cells, lipofectin, relative to untreated control
# [4] = HepB3 cells, gapmers targeted to nucleobases 14707 to 14732 of SEQ ID NO: 1 (Table 11)
# [5] = Example 6 microwalk, nucleobases 15098 to 15122 of SEQ ID NO: 1, HepB3, lipofectin
substance,measurement,setting,value
422092 (antisense eA*eT*eG*eG*eT*d[5mC]*dA*dG*dG*dG*d[5mC]*dT*dG*dG*dT*eT*eT*eT*eG*eG) [compound 422092],% Inhibition of human Factor 7 mRNA levels,[1],36%
422093 (antisense eA*eA*eT*eG*eG*dT*d[5mC]*dA*dG*dG*dG*d[5mC]*dT*dG*dG*eT*eT*eT*eT*eG) [compound 422093],% Inhibition of human Factor 7 mRNA levels,[1],42%
422094 (antisense e[5mC]*eA*eA*eT*eG*dG*dT*d[5mC]*dA*dG*dG*dG*d[5mC]*dT*dG*eG*eT*eT*eT*eT) [compound 422094],% Inhibition of human Factor 7 mRNA levels,[1],48%
422095 (antisense eA*e[5mC]*eA*eA*eT*dG*dG*dT*d[5mC]*dA*dG*dG*dG*d[5mC]*dT*eG*eG*eT*eT*eT) [compound 422095],% Inhibition of human Factor 7 mRNA levels,[1],60%
422097 (antisense eG*eA*eG*eA*e[5mC]*dA*dA*dT*dG*dG*dT*d[5mC]*dA*dG*dG*eG*e[5mC]*eT*eG*eG) [compound 422097],% Inhibition of human Factor 7 mRNA levels,[1],59%
422098 (antisense eG*eG*eA*eG*eA*d[5mC]*dA*dA*dT*dG*dG*dT*d[5mC]*dA*dG*eG*eG*e[5mC]*eT*eG) [compound 422098],% Inhibition of human Factor 7 mRNA levels,[1],53%
422099 (antisense eA*eG*eG*eA*eG*dA*d[5mC]*dA*dA*dT*dG*dG*dT*d[5mC]*dA*eG*eG*eG*e[5mC]*eT) [compound 422099],% Inhibition of human Factor 7 mRNA levels,[1],48%
422100 (antisense eG*eA*eG*eG*eA*dG*dA*d[5mC]*dA*dA*dT*dG*dG*dT*d[5mC]*eA*eG*eG*eG*e[5mC]) [compound 422100],% Inhibition of human Factor 7 mRNA levels,[1],59%
422101 (antisense eT*eG*eA*eG*eG*dA*dG*dA*d[5mC]*dA*dA*dT*dG*dG*dT*e[5mC]*eA*eG*eG*eG) [compound 422101],% Inhibition of human Factor 7 mRNA levels,[1],42%
422102 (antisense e[5mC]*eT*eG*eA*eG*dG*dA*dG*dA*d[5mC]*dA*dA*dT*dG*dG*eT*e[5mC]*eA*eG*eG) [compound 422102],% Inhibition of human Factor 7 mRNA levels,[1],62%
422103 (antisense eG*e[5mC]*eT*eG*eA*dG*dG*dA*dG*dA*d[5mC]*dA*dA*dT*dG*eG*eT*e[5mC]*eA*eG) [compound 422103],% Inhibition of human Factor 7 mRNA levels,[1],38%
422104 (antisense eG*eG*e[5mC]*eT*eG*dA*dG*dG*dA*dG*dA*d[5mC]*dA*dA*dT*eG*eG*eT*e[5mC]*eA) [compound 422104],% Inhibition of human Factor 7 mRNA levels,[1],59%
422105 (antisense eT*eG*eG*e[5mC]*eT*dG*dA*dG*dG*dA*dG*dA*d[5mC]*dA*dA*eT*eG*eG*eT*e[5mC]) [compound 422105],% Inhibition of human Factor 7 mRNA levels,[1],60%
422106 (antisense e[5mC]*eT*eG*eG*e[5mC]*dT*dG*dA*dG*dG*dA*dG*dA*d[5mC]*dA*eA*eT*eG*eG*eT) [compound 422106],% Inhibition of human Factor 7 mRNA levels,[1],32%
422107 (antisense eG*e[5mC]*eT*eG*eG*d[5mC]*dT*dG*dA*dG*dG*dA*dG*dA*d[5mC]*eA*eA*eT*eG*eG) [compound 422107],% Inhibition of human Factor 7 mRNA levels,[1],36%
422108 (antisense e[5mC]*e[5mC]*eG*e[5mC]*e[5mC]*dG*dG*d[5mC]*dT*d[5mC]*dT*dG*d[5mC]*dT*d[5mC]*eA*eT*e[5mC]*e[5mC]*e[5mC]) [compound 422108],% Inhibition of human Factor 7 mRNA levels,[2],69%
422109 (antisense e[5mC]*e[5mC]*e[5mC]*eG*e[5mC]*d[5mC]*dG*dG*d[5mC]*dT*d[5mC]*dT*dG*d[5mC]*dT*e[5mC]*eA*eT*e[5mC]*e[5mC]) [compound 422109],% Inhibition of human Factor 7 mRNA levels,[2],68%
422110 (antisense eA*e[5mC]*e[5mC]*e[5mC]*eG*d[5mC]*d[5mC]*dG*dG*d[5mC]*dT*d[5mC]*dT*dG*d[5mC]*eT*e[5mC]*eA*eT*e[5mC]) [compound 422110],% Inhibition of human Factor 7 mRNA levels,[2],53%
422111 (antisense e[5mC]*eA*e[5mC]*e[5mC]*e[5mC]*dG*d[5mC]*d[5mC]*dG*dG*d[5mC]*dT*d[5mC]*dT*dG*e[5mC]*eT*e[5mC]*eA*eT) [compound 422111],% Inhibition of human Factor 7 mRNA levels,[2],37%
422112 (antisense e[5mC]*e[5mC]*eA*e[5mC]*e[5mC]*d[5mC]*dG*d[5mC]*d[5mC]*dG*dG*d[5mC]*dT*d[5mC]*dT*eG*e[5mC]*eT*e[5mC]*eA) [compound 422112],% Inhibition of human Factor 7 mRNA levels,[2],61%
422113 (antisense eG*e[5mC]*e[5mC]*eA*e[5mC]*d[5mC]*d[5mC]*dG*d[5mC]*d[5mC]*dG*dG*d[5mC]*dT*d[5mC]*eT*eG*e[5mC]*eT*e[5mC]) [compound 422113],% Inhibition of human Factor 7 mRNA levels,[2],68%
422114 (antisense e[5mC]*eG*e[5mC]*e[5mC]*eA*d[5mC]*d[5mC]*d[5mC]*dG*d[5mC]*d[5mC]*dG*dG*d[5mC]*dT*e[5mC]*eT*eG*e[5mC]*eT) [compound 422114],% Inhibition of human Factor 7 mRNA levels,[2],50%
422115 (antisense eG*e[5mC]*eG*e[5mC]*e[5mC]*dA*d[5mC]*d[5mC]*d[5mC]*dG*d[5mC]*d[5mC]*dG*dG*d[5mC]*eT*e[5mC]*eT*eG*e[5mC]) [compound 422115],% Inhibition of human Factor 7 mRNA levels,[2],66%
422116 (antisense eT*eG*e[5mC]*eG*e[5mC]*d[5mC]*dA*d[5mC]*d[5mC]*d[5mC]*dG*d[5mC]*d[5mC]*dG*dG*e[5mC]*eT*e[5mC]*eT*eG) [compound 422116],% Inhibition of human Factor 7 mRNA levels,[2],52%
422117 (antisense eG*eG*eA*eA*eG*dA*dA*dG*dG*dG*dA*d[5mC]*dG*dG*dA*eA*eG*eG*eT*eG) [compound 422117],% Inhibition (human Factor 7 mRNA),[3],1%
422118 (antisense e[5mC]*eG*eG*eA*eA*dG*dA*dA*dG*dG*dG*dA*d[5mC]*dG*dG*eA*eA*eG*eG*eT) [compound 422118],% Inhibition (human Factor 7 mRNA),[3],15%
422119 (antisense eG*e[5mC]*eG*eG*eA*dA*dG*dA*dA*dG*dG*dG*dA*d[5mC]*dG*eG*eA*eA*eG*eG) [compound 422119],% Inhibition (human Factor 7 mRNA),[3],39%
422120 (antisense e[5mC]*eG*e[5mC]*eG*eG*dA*dA*dG*dA*dA*dG*dG*dG*dA*d[5mC]*eG*eG*eA*eA*eG) [compound 422120],% Inhibition (human Factor 7 mRNA),[3],40%
422121 (antisense eG*e[5mC]*eG*e[5mC]*eG*dG*dA*dA*dG*dA*dA*dG*dG*dG*dA*e[5mC]*eG*eG*eA*eA) [compound 422121],% Inhibition (human Factor 7 mRNA),[3],43%
422122 (antisense eA*eG*e[5mC]*eG*e[5mC]*dG*dG*dA*dA*dG*dA*dA*dG*dG*dG*eA*e[5mC]*eG*eG*eA) [compound 422122],% Inhibition (human Factor 7 mRNA),[3],24%
422123 (antisense eG*eA*eG*e[5mC]*eG*d[5mC]*dG*dG*dA*dA*dG*dA*dA*dG*dG*eG*eA*e[5mC]*eG*eG) [compound 422123],% Inhibition (human Factor 7 mRNA),[3],16%
422124 (antisense eT*eG*eA*eG*e[5mC]*dG*d[5mC]*dG*dG*dA*dA*dG*dA*dA*dG*eG*eG*eA*e[5mC]*eG) [compound 422124],% Inhibition (human Factor 7 mRNA),[3],0%
422125 (antisense e[5mC]*eT*eG*eA*eG*d[5mC]*dG*d[5mC]*dG*dG*dA*dA*dG*dA*dA*eG*eG*eG*eA*e[5mC]) [compound 422125],% Inhibition (human Factor 7 mRNA),[3],8%
422126 (antisense eA*e[5mC]*eT*eG*eA*dG*d[5mC]*dG*d[5mC]*dG*dG*dA*dA*dG*dA*eA*eG*eG*eG*eA) [compound 422126],% Inhibition (human Factor 7 mRNA),[3],22%
422127 (antisense eT*eA*e[5mC]*eT*eG*dA*dG*d[5mC]*dG*d[5mC]*dG*dG*dA*dA*dG*eA*eA*eG*eG*eG) [compound 422127],% Inhibition (human Factor 7 mRNA),[3],17%
422128 (antisense eT*eT*eA*e[5mC]*eT*dG*dA*dG*d[5mC]*dG*d[5mC]*dG*dG*dA*dA*eG*eA*eA*eG*eG) [compound 422128],% Inhibition (human Factor 7 mRNA),[3],27%
422129 (antisense eG*eT*eT*eA*e[5mC]*dT*dG*dA*dG*d[5mC]*dG*d[5mC]*dG*dG*dA*eA*eG*eA*eA*eG) [compound 422129],% Inhibition (human Factor 7 mRNA),[3],45%
422131 (antisense eA*eG*e[5mC]*e[5mC]*eT*dG*dA*dG*dG*d[5mC]*d[5mC]*dA*dG*d[5mC]*dA*eG*eA*eT*e[5mC]*eA) [compound 422131],% Inhibition of human Factor 7 mRNA levels,[4],68%
422132 (antisense eG*e[5mC]*eA*eG*e[5mC]*d[5mC]*dT*dG*dA*dG*dG*d[5mC]*d[5mC]*dA*dG*e[5mC]*eA*eG*eA*eT) [compound 422132],% Inhibition of human Factor 7 mRNA levels,[4],54%
422133 (antisense eA*eG*e[5mC]*eA*eG*d[5mC]*d[5mC]*dT*dG*dA*dG*dG*d[5mC]*d[5mC]*dA*eG*e[5mC]*eA*eG*eA) [compound 422133],% Inhibition of human Factor 7 mRNA levels,[4],65%
422134 (antisense eG*e[5mC]*eA*e[5mC]*eA*d[5mC]*dA*dT*dG*dG*dA*dG*dT*d[5mC]*dA*eG*e[5mC]*eA*eT*e[5mC]) [compound 422134],% Inhibition (human Factor 7 mRNA),[5],67%
422135 (antisense eA*eG*e[5mC]*eA*e[5mC]*dA*d[5mC]*dA*dT*dG*dG*dA*dG*dT*d[5mC]*eA*eG*e[5mC]*eA*eT) [compound 422135],% Inhibition (human Factor 7 mRNA),[5],53%
422136 (antisense e[5mC]*eA*eG*e[5mC]*eA*d[5mC]*dA*d[5mC]*dA*dT*dG*dG*dA*dG*dT*e[5mC]*eA*eG*e[5mC]*eA) [compound 422136],% Inhibition (human Factor 7 mRNA),[5],57%
422137 (antisense eA*e[5mC]*eA*eG*e[5mC]*dA*d[5mC]*dA*d[5mC]*dA*dT*dG*dG*dA*dG*eT*e[5mC]*eA*eG*e[5mC]) [compound 422137],% Inhibition (human Factor 7 mRNA),[5],45%
